Results: US6710051B1, “Screening method” (Klaus Trier APS, priority 1997, dated 2004)
Read-outs that look alike come from different tables or passages of the source. Marks after values point to notes of the source that are not given here.

Key:
sclera [1] = experiment: Content of collagen specific amino acids in rabbit sclera after long term treatment (HPLC); type: in vivo; set-up: Hydroxylysine Decr. compared to the control / Hydroxyproline Inc. compared to the control / Proline Inc. compared to the control: concentration or dose not given beside the values; settings: for Hydroxylysine content / Hydroxyproline content / Proline content: dried defatted weight; for Hydroxylysine content / Hydroxyproline content / Proline content / Hydroxyproline Inc. compared to the control / Proline Inc. compared to the control / Hydroxylysine Decr. compared to the control: 3 months treatment
Description: (§1) Test animal: Charles River Deutschland Chinchilla Bastard female rabbits.
(§2) Number of animals: 6 test animals and 6 control animals
(§3) Age: approximately 8 weeks at the commencement of the test.
(§4) Weight: 1.4-1.9 kg at the commencement of the test.
(§5) Cages: The animals live in identical cages made of stainless steel (Scanbur), length 1 m, depth 0.52 m, height 0.5 m.
(§6) Amount of food: Increasing from 75 g per day at the commencement of the test up to 130 g after three months.
(§7) Experimental drinking water 1 contained theophyllin in a dose equivalent of 27 mg increasing to 63 mg (added as theophyllin and ethylendiamin in a dose of 33 to 77 mg) daily.
(§8) Experimental drinking water 2 contained fluoxetine (Fontex, Lilly) in a dose equivalent of 2 mg increasing to 5 mg daily.
(§9) Experimental diet 3 was added 7-methylxanthine 500 mg per kg Stanrab standard diet equivalent of a daily 7-methylxanthine dose of […] per day.
(§10) Experimental diet 4 was added theobromine (3,7-dimethylxanthine) 500 mg per kg Stanrab standard diet equivalent of a daily theobromine dose of […] per day.
(§11) Experimental diet 5 was added acetazolamide 500 mg per kg Stanrab standard diet equivalent of a daily acetazolamide dose of […] per day.
(§12) Collection of sample: Sclera biopsies are taken for analysis for proteoglycane content, distribution between the individual glycosaminoglycanes and the content of collagen specific amino acids. Four tests from each animal: Two samples from the front, 5×10 mm along limbus (without cornea), and two samples from the back, punch 10 mm corresponding to the center of the retina. Furthermore, tests are taken for electron microscopy (EM) from two animals in each group.
Samples for analysis for content of collagen specific amino acids are frozen down immediately. The amino acid content is determined by HPLC-chromatography.
The dried tissue with constant weight is minced into very fine particles with a pair of scissors, approximately 20 per piece of tissue. The small flakes from each original piece of tissue ate divided into two equally sized portions, one of which is employed for hydrolysis and the other one is kept for reference. The constant dry weight of each portion is known.
From each resolubilized hydrolysate 3 aliquots of each 8 microliters and 3 aliquots of 40 μl are taken and transferred to separate polypropylene tubes in which 20 microliters of a solution of internal standard substances citrulline and 2 aminobutyric acid were added where the further method takes place.
The taken aliquots from hydrolysate are dried in a vacuum exsiccator at 35° C. over night and subsequently submitted to derivatization with phenylisothiocyanate.
The resulting phenylisothiocarbamates are transferred to the HPLC instrument for separation and quantification. A new set of calibration curves is established, 1 curve for each of the 19 amino acids, prior to the analysis of the samples from one investigation.
The concentration range of standard samples exceed the ranges of amino acid concentrations in the unknowns. Hydroxyproline and proline are quantitated from the 8 microliter aliquots, and hydroxylysine is quantitated from the 40 microliter aliquots.

sclera [2] = experiment: Content of proteoglycanes in rabbit sclera after long term treatment (alcian blue method); type: in vivo; set-up: Proteoglycanes Decrease compared to the control, anterior sclera / Proteoglycanes Increase compared to the control, anterior sclera / Proteoglycanes Increase compared to the control, posterior sclera / Effect on proteoglycan content of posterior sclera in % compared to control: concentration or dose not given beside the values; settings: for Content of proteoglycanes, anterior sclera / Content of proteoglycanes, posterior sclera: wet weight
Procedure: as §1, §2, §3, §4
Lightness/Darkness cycle: 12/12 hours.
as §5
Food: Stanrab standard diet from Special Diet Services, P.O. Box 705, Witham Essex CM8 3AD, UK (further details, see Table A).
as §6, §7, §8
Experimental diet 2 was added 4.5 g L-cystine per kg Stanrab standard diet equivalent of a daily L-cystine dose of 338 mg increasing to 585 mg per day. With respect to the supplement of L-cystine, the normal intake per day of the standard diet is 218 mg increasing to 377 mg L-cystine.
as §9, §10, §11
Experimental diet 6 was added 4.5 g L-ornithine per kg Stanrab standard diet equivalent of a daily L-ornithine dose of 338 mg increasing to 585 mg per day.
as §12
Analyses: Samples for proteoglycane analysis are frozen down immediately. The samples are analyzed by Wieslab AB, IDEON, S-223 70 Lund, Sweden, by means of a method which has been described by Björnsson, S., Analytical Biochemistry 210, 282-291 (1993). The method comprises extraction by 20 microliters of 4 M guanidine-HCl, 50 Mm sodium acetate per mg wet weight over night by room temperatures. The extracts are centrifuged in order to remove debris. 20 microliters of supernatant are reduced 1/10 in extraction buffer and 20 microliters of reduced supernatant are mixed with 10 microliters of reagent 1 (see Björnsson, S., Analytical biochemistry 210, 282-291 (1993)) on a shaking table for 15 minutes. 200 microliters of reagent 2 are added and the tests are incubated for 60 minutes in order to precipitate the proteoglycanes. The proteoglycane/alcian blue precipitate is transferred to 96-wells MillBlotD apparatus and washed with 2×200 microliters of 40% DMSO, 0.05 M of MgCl2. The colour intensity of the wells are quantitated by microtech E3 scanner and Scan Analysis software (Biosoft, Cambridge, U.K.). Chrondroitine-6-sulphate (Sigma C4384) is used as the calibrator. All samples are analyzed in duplicate.
The results of longterm treatment with each of the 8 substances specified above are shown in Example 2 (treatment for 12 weeks) and Example 4 (treatment for 10 weeks).

sclera [3] = experiment: Content of collagen specific amino acids in rabbit sclera after long term treatment (HPLC); type: in vivo; settings: dried defatted weight, 10 weeks treatment (Example 4)
skeletal RyR = target: T1, skeletal RyR (Oryctolagus cuniculus, UniProt P11716); settings: cited from earlier work; for Bound [3H]ryanodine % of control / Bound [3H]ryanodine pmol/mg protein / Bound [3H]ryanodine, % of control, +1 mmol/l AMPPCP / Bound [3H]ryanodine, % of control, +3 mmol/l AMP: xanthine […]; for Bound [3H]ryanodine % of control / Bound [3H]ryanodine pmol/mg protein: 1 mmol/l AMPPCP; for Bound [3H]ryanodine pmol/mg protein: means±SD of 3-4 experiments
T1 construct: Structure-activity Relationship of Xanthines and Skeletal Muscle Ryanodine Receptor/Ca^2+ Release Channel; from tissue; host or cells: Skeletal muscle
T1 sequence (P11716 whole entry): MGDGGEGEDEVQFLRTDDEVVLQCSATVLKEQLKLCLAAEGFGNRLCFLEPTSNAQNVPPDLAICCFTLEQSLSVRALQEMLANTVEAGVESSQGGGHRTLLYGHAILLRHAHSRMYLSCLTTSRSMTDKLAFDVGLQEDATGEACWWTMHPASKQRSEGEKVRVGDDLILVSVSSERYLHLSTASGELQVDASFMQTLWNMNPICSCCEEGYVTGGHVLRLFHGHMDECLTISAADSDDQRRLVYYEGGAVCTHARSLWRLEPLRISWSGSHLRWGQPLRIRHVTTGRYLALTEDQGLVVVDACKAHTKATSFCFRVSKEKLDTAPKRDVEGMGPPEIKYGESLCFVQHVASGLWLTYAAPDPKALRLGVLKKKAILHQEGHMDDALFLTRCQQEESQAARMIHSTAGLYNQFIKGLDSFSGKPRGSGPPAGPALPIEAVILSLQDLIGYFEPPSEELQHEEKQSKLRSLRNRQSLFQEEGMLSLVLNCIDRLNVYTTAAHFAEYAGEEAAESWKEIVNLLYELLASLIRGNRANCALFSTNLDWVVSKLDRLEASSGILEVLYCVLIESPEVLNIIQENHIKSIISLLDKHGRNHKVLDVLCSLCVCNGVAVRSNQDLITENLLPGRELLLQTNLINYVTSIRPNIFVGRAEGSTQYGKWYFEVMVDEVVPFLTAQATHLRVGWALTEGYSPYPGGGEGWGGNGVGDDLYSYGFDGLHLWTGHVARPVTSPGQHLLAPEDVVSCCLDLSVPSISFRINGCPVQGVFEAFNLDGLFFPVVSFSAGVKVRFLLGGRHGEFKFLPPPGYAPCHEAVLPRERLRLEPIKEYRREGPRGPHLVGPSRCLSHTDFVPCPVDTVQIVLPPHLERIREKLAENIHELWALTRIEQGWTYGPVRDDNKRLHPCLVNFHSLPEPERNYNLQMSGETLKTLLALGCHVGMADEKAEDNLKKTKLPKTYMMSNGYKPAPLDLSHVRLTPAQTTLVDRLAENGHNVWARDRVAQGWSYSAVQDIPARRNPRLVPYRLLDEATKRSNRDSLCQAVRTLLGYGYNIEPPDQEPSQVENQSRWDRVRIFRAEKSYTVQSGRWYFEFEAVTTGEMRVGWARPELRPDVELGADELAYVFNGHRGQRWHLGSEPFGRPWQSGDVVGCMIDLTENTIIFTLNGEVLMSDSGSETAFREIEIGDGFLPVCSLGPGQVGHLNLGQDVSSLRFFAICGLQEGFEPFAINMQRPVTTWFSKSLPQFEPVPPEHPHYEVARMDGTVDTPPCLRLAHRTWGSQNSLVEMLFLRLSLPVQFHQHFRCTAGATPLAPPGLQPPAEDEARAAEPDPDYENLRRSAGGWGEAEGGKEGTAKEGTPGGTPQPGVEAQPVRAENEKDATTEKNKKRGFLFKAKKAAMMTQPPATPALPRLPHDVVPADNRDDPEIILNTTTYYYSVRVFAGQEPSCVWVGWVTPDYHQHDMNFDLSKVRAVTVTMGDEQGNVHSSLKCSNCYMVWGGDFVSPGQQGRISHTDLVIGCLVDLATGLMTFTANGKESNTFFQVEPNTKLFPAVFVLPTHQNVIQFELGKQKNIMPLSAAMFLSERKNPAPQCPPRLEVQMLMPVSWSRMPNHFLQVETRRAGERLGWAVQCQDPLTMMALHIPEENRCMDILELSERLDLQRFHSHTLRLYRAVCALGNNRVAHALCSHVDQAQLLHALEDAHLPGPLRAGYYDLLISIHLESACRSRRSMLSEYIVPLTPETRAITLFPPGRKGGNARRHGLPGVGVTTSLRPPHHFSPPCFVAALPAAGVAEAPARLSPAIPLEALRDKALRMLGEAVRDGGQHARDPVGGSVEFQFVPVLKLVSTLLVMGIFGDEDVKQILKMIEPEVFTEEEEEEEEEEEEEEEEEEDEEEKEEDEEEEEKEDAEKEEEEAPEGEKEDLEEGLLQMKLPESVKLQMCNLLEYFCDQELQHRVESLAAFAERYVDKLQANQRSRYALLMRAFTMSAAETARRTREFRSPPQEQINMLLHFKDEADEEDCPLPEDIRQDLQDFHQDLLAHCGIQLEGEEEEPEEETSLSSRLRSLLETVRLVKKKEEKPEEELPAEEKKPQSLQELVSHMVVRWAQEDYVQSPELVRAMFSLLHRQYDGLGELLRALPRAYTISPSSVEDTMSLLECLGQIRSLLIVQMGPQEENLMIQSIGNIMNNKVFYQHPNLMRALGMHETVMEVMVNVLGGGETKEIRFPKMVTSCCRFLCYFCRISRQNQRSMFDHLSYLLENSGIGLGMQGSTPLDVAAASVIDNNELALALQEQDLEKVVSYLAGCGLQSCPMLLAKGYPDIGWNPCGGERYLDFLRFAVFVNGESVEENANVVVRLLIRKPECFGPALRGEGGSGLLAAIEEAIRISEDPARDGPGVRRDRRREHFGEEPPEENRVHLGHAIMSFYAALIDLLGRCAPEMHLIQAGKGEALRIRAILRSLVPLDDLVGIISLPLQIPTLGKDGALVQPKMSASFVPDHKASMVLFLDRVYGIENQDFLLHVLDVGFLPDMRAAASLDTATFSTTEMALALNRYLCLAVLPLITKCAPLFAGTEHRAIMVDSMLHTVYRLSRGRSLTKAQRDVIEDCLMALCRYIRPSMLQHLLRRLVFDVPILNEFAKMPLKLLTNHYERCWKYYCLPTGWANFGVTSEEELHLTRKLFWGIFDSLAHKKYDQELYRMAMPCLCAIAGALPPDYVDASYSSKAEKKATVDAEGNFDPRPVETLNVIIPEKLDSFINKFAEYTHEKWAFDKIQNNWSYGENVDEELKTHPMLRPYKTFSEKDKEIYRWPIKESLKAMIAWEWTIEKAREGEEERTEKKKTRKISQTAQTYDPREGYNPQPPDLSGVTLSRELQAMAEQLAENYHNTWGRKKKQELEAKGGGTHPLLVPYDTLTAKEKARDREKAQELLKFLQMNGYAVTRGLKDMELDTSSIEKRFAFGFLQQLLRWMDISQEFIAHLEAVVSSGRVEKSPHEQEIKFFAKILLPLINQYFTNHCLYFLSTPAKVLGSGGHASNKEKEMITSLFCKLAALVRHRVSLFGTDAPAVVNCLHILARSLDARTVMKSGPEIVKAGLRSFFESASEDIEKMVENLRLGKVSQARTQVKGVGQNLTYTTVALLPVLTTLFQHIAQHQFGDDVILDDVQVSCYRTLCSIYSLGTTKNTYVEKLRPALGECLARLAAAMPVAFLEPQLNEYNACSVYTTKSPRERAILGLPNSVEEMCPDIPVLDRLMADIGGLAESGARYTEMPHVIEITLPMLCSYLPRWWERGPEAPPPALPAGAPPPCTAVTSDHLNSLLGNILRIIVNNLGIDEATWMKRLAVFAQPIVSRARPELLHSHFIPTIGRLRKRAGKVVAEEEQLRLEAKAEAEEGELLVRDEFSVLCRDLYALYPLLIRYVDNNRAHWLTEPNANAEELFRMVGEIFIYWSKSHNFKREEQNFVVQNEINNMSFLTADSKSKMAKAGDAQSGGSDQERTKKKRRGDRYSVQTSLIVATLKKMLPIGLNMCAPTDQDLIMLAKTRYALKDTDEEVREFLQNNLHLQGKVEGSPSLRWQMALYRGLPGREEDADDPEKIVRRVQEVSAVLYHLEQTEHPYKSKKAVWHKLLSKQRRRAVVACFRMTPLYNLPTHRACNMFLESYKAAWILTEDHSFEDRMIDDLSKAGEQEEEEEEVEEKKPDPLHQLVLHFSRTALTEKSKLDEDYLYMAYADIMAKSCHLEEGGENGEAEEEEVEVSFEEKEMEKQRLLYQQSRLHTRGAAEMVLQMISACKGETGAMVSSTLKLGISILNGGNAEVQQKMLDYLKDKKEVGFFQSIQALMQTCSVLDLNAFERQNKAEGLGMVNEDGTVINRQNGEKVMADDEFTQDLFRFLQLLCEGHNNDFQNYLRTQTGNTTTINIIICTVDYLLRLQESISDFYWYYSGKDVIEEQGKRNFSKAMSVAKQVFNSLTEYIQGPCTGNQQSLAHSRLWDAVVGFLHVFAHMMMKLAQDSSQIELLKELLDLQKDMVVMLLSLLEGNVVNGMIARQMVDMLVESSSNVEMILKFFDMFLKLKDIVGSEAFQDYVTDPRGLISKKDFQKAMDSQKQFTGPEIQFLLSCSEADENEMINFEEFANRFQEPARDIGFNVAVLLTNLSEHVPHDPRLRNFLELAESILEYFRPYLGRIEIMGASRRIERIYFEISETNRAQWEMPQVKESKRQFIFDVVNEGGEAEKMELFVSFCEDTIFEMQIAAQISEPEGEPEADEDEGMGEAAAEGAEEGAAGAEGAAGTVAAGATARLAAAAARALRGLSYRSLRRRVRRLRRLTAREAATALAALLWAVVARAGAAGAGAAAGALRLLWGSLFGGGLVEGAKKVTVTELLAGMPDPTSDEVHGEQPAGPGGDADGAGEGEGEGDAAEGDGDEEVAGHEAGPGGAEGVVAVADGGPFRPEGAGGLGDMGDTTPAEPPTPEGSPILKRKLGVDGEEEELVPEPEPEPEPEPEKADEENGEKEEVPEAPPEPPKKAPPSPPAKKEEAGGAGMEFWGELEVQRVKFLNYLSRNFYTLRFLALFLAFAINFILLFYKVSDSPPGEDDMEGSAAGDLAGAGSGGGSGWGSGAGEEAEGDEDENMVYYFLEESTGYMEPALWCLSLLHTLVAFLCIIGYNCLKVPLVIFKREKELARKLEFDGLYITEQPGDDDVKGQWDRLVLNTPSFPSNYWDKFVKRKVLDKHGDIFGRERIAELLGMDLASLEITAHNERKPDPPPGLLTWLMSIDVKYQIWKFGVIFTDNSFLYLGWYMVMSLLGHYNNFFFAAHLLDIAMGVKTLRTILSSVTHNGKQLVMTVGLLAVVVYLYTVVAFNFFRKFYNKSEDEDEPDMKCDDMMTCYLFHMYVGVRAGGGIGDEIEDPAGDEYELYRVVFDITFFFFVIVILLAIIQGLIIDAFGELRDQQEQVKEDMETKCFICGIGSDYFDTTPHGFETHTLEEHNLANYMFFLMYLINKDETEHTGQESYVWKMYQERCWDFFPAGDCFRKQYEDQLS

[4] = posterior sclera, 10 weeks treatment (Example 4)

| SMILES | Hydroxylysine content (sclera [1]; anterior sclera) | Hydroxyproline content (sclera [1]; anterior sclera) | Proline content (sclera [1]; anterior sclera) | Hydroxyproline Inc. compared to the control (sclera [1]; posterior sclera) [%] | Proline Inc. compared to the control (sclera [1]; posterior sclera) [%] | Hydroxylysine content (sclera [1]; posterior sclera) | Hydroxyproline content (sclera [1]; posterior sclera) | Proline content (sclera [1]; posterior sclera) | Content of proteoglycanes, anterior sclera (sclera [2]; 3 months treatment) | Content of proteoglycanes, posterior sclera (sclera [2]; 3 months treatment) | Content of proteoglycanes, anterior sclera (sclera [2]; 10 weeks treatment (Example 4)) | Content of proteoglycanes, posterior sclera (sclera [2]; 10 weeks treatment (Example 4)) | Hydroxylysine content (sclera [3]; anterior sclera) | Hydroxyproline content (sclera [3]; anterior sclera) | Proline content (sclera [3]; anterior sclera) | Hydroxylysine content (sclera [3]; posterior sclera) | Hydroxyproline content (sclera [3]; posterior sclera) | Proline content (sclera [3]; posterior sclera) | Bound [3H]ryanodine pmol/mg protein (skeletal RyR) [pmol/mg protein] | Bound [3H]ryanodine, % of control, +1 mmol/l AMPPCP (skeletal RyR; control (-xanthine) = 100) | other results |
| --- | --- | --- | --- | --- | --- | --- | --- | --- | --- | --- | --- | --- | --- | --- | --- | --- | --- | --- | --- | --- | --- |
| N[C@@H](CSSC[C@H](N)C(=O)O)C(=O)O [L-cystine] | 45 +/− 10 nanomol/mg tissue | 599 +/− 41 nanomol/mg tissue | 885 +/− 22 nanomol/mg tissue | 9 | 7 | 43 +/− 8 nanomol/mg tissue | 596 +/− 39 nanomol/mg tissue | 867 +/− 14 nanomol/mg tissue | 3.5 +/− 0.5* μg PG/mg tissue | 3.5 +/− 0.4* μg PG/mg tissue | – | – | – | – | – | – | – | – | – | – | Proteoglycanes Increase compared to the control, anterior sclera (sclera [2]; 3 months treatment): 29%; Proteoglycanes Increase compared to the control, posterior sclera (sclera [2]; 3 months treatment): 29% |
| NCCC[C@H](N)C(=O)O [L-ornithine] | – | – | – | – | – | – | – | – | – | – | 3.0 +/− 1.1 μg PG/mg tissue | 3.0 +/− 0.9 μg PG/mg tissue | 37 +/− 4 nanomol/mg tissue | 605 +/− 37 nanomol/mg tissue | 875 +/− 48 nanomol/mg tissue | 38 +/− 5 nanomol/mg tissue | 611 +/− 24 nanomol/mg tissue | 871 +/− 35 nanomol/mg tissue | – | – | Hydroxylysine Decr. (sclera [1]; [4]): 7% |
| Cn1c(=O)c2[nH]cnc2n(C)c1=O.Cn1c(=O)c2[nH]cnc2n(C)c1=O.NCCN [Teofylamin] | 28 +/− 10 nanomol/mg tissue | 653 +/− 39 nanomol/mg tissue | 958 +/− 23 nanomol/mg tissue | 18 | 11 | 28 +/− 15 nanomol/mg tissue | 643 +/− 74 nanomol/mg tissue | 902 +/− 53 nanomol/mg tissue | 2.4 +/− 0.5 μg PG/mg tissue | 2.7 +/− 0.3 μg PG/mg tissue | – | – | – | – | – | – | – | – | – | – | Hydroxylysine Decr. compared to the control (sclera [1]; anterior sclera): 32%; Hydroxyproline Inc. compared to the control (sclera [1]; anterior sclera): 8%; Proline Inc. compared to the control (sclera [1]; anterior sclera): 8%; Hydroxylysine Decr. compared to the control (sclera [1]; posterior sclera): 35%; Proteoglycanes Decrease compared to the control, anterior sclera (sclera [2]; 3 months treatment): 11% |
| CC(=O)Nc1nnc(S(N)(=O)=O)s1 [Acetazolamide, acetazolamide] | – | – | – | – | – | – | – | – | – | – | 2.9 +/− 0.4 μg PG/mg tissue | 2.8 +/− 0.8 μg PG/mg tissue | 41 +/− 4 nanomol/mg tissue | 596 +/− 27* nanomol/mg tissue | 843 +/− 47* nanomol/mg tissue | 38 +/− 6 nanomol/mg tissue | 563 +/− 91 nanomol/mg tissue | 781 +/− 125 nanomol/mg tissue | – | – | content of hydroxyproline and proline in anterior sclera (in words) (sclera [1]; Example 4, versus control, significantly): reduced; Hydroxylysine Decr. (sclera [1]; [4]): 7%; Hydroxyproline Decr. (sclera [1]; [4]): 10%; Proline Decr. (sclera [1]; [4]): 10% |
| CNCCC(Oc1ccc(C(F)(F)F)cc1)c1ccccc1 (centres unmarked) [Fluoxetine, fluoxetine] | 33 +/− 11 nanomol/mg tissue | 619 +/− 40 nanomol/mg tissue | 896 +/− 21 nanomol/mg tissue | 17 | 15 | 41 +/− 13 nanomol/mg tissue | 640 +/− 31 nanomol/mg tissue | 927 +/− 15 nanomol/mg tissue | 2.2 +/− 0.4* μg PG/mg tissue | 2.6 +/− 0.2 μg PG/mg tissue | – | – | – | – | – | – | – | – | – | – | Hydroxylysine Decr. compared to the control (sclera [1]; anterior sclera): 20%; Proteoglycanes Decrease compared to the control, anterior sclera (sclera [2]; 3 months treatment): 19% |
| Cn1cnc2c1c(=O)[nH]c(=O)n2C [Theobromine, 3,7-Dimethylxanthine] | – | – | – | – | – | – | – | – | – | – | 2.6 +/− 0.7 μg PG/mg tissue | 2.5 +/− 0.4 μg PG/mg tissue | 49 +/− 6 nanomol/mg tissue | 751 +/− 53* nanomol/mg tissue | 1073 +/− 78* nanomol/mg tissue | 49 +/− 4* nanomol/mg tissue | 741 +/− 18* nanomol/mg tissue | 1029 +/− 45* nanomol/mg tissue | 2.70 ± 0.37 | 160 ± 22 % of control | content of all collagen specific amino acids, except hydroxylysine in anterior sclera (in words) (sclera [1]; all sclera samples, Example 4, versus control): Significant higher content; Hydroxylysine Inc. (sclera [1]; [4]): 20%; Hydroxyproline Inc. (sclera [1]; [4]): 19%; Proline Inc. (sclera [1]; [4]): 20%; Proteoglycanes Decrease, anterior sclera (sclera [2]; 10 weeks treatment (Example 4)): 10%; Proteoglycanes Decrease, posterior sclera (sclera [2]; 10 weeks treatment (Example 4)): 14%; content of proteoglycans in posterior sclera (in words) (sclera [2]; Example 4, versus control): decrease; Effect on proteoglycan content of posterior sclera in % compared to control (sclera [2]; rabbit, Examples 2 and 4): 86%; Effect on [3H ryanodine binding in % compared to control (skeletal RyR; values of Table 3 without AMP/AMPPCP, caffeine represented by 1,7-dimethylxanthine): 124%; Bound [3H]ryanodine % of control (skeletal RyR; control (-xanthine) = 100): 160 ± 22 % of control; Bound [3H]ryanodine, % of control, +3 mmol/l AMP (skeletal RyR; control (-xanthine) = 100): 136 ± 8 % of control |
| Cn1cnc2c(=O)[nH]c(=O)n(C)c21 [3,9-Dimethylxanthine] | – | – | – | – | – | – | – | – | – | – | – | – | – | – | – | – | – | – | 2.42 ± 0.34 | 143 ± 20 % of control | Bound [3H]ryanodine % of control (skeletal RyR; control (-xanthine) = 100): 143 ± 20 % of control; Bound [3H]ryanodine, % of control, +3 mmol/l AMP (skeletal RyR; control (-xanthine) = 100): 141 ± 11 % of control |
| Cn1c(=O)c2c(ncn2CCO)n(C)c1=O [7β-Hydroxyethyl-1,3-dimethylxanthine] | – | – | – | – | – | – | – | – | – | – | – | – | – | – | – | – | – | – | 2.10 ± 0.26 | 124 ± 15 % of control | Bound [3H]ryanodine % of control (skeletal RyR; control 1,3-dimethylxanthine = 100): 73 ± 4 % of control; Bound [3H]ryanodine, % of control, +3 mmol/l AMP (skeletal RyR; control (-xanthine) = 100): 134 ± 15 % of control |
